# Test results as given in PubChem BioAssay (NCI).
#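 At the GI50, growth is halved. TGI marks complete inhibition of growth.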
# Legend:
# Assay in all cases: growth of human tumour cells (NCI), 384-well format
# SF-268 CNS = test system: SF-268 CNS
# EKVX NSCLC = test system: EKVX NSCLC
# ACHN renal = test system: ACHN renal
# HT29 colon = test system: HT29 colon
# T-47D breast = test system: T-47D breast
# HCC-2998 colon = test system: HCC-2998 colon
# MCF7 breast = test system: MCF7 breast
# HCT-15 colon = test system: HCT-15 colon
# KM12 colon = test system: KM12 colon
# UO-31 renal = test system: UO-31 renal
# NCI-H322M lung = test system: NCI-H322M lung
# MDA-MB-468 breast = test system: MDA-MB-468 breast
# M14 melanoma = test system: M14 melanoma
smiles,measurement,setting,value
CCN(CC)CCNC(=O)c1c(C)[nH]c(/C=C2\C(=O)Nc3ccc(F)cc32)c1C,GI50,SF-268 CNS,4.23 µM
same,TGI,SF-268 CNS,13.1 µM
same,GI50,EKVX NSCLC,3.12 µM
same,TGI,EKVX NSCLC,9.47 µM
same,GI50,ACHN renal,1.3 µM
same,TGI,ACHN renal,3.06 µM
same,GI50,HT29 colon,1.48 µM
same,TGI,HT29 colon,2.85 µM
same,GI50,T-47D breast,4.24 µM
same,TGI,T-47D breast,8.33 µM
same,GI50,HCC-2998 colon,1.71 µM
same,TGI,HCC-2998 colon,3.32 µM
same,GI50,MCF7 breast,1.36 µM
same,TGI,MCF7 breast,3.8 µM
same,GI50,HCT-15 colon,1.19 µM
same,TGI,HCT-15 colon,3.6 µM
same,GI50,KM12 colon,0.0426 µM
same,TGI,KM12 colon,4.7 µM
same,GI50,UO-31 renal,2.17 µM
same,TGI,UO-31 renal,6.36 µM
same,GI50,NCI-H322M lung,2.41 µM
same,TGI,NCI-H322M lung,8.96 µM
same,GI50,MDA-MB-468 breast,2.94 µM
same,TGI,MDA-MB-468 breast,5.41 µM
same,GI50,M14 melanoma,0.911 µM
same,TGI,M14 melanoma,2.15 µM
